According to article PMC6078987, “Molecular insights into antibiotic resistance - how a binding protein traps albicidin” (Nature Communications, 2018):
Values joined by “and” are separate entries in the source; they are usually repeats but may differ in a detail not shown here. Equal values may be shown once. “Also recorded” adds a separate entry of the source.

Legend:
E. coli DH5α = assay: Agar diffusion assay; type: cell-based; settings: for neutralization of antibacterial activity by AlbAS: 40 µM compound pre-incubated with 40 µM AlbAS; for antibacterial activity in agar diffusion assay: 40 µM compound, E. coli DH5α, 18 h 37 °C
Method: To verify the neutralizing ability of AlbAS, AlbAL, AlbASM, AlbASCTD, or AlbASNTD against different compounds, agar diffusion assays with the respective compounds were performed. An overnight culture of E. coli DH5α was diluted to an OD600 of 0.05 with 0.75% LB-agar. The protein-albicidin reaction mixture consisted of a 1:1 mixture of 40 μM albicidin (or derivatives) with 40 μM protein (either AlbAS or its variants AlbAL, AlbASM, AlbASNTD, and AlbASCTD). The mixture was incubated for 20 min at room temperature in the dark. Reaction mixtures of 30 μL were transferred in triplicates of 2 mm holes on the inoculated agar plate. The plates were evaluated concerning growth-inhibition zone after incubation for 18 h at 37 °C.

AlbAS [1] = target: T1, AlbAS (Klebsiella oxytoca, UniProt Q8KRS7); assay: 1H-15N HSQC NMR binding assay; settings: 15N-labeled AlbAS, 1.5-fold excess of ligand
T1 sequence (Q8KRS7 1-221): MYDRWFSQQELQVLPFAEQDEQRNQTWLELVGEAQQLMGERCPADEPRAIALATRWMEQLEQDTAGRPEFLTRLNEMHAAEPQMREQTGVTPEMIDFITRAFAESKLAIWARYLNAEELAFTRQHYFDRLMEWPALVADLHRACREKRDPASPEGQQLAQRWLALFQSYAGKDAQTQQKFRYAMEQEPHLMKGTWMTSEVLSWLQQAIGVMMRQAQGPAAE
Method: For binding studies with albicidin and its derivatives, each ligand was dissolved in 100% d6-DMSO and added to ^15N-labeled AlbAS or ^2H, ^15N-labeled AlbAL in 50 mM sodium hydrogen phosphate (pH 6.8), 150 mM NaCl buffer (usually 0.24 mM AlbAS or AlbAL in 85% buffer, 5% d6-DMSO, and 10% D2O) yielding a 1.5-fold excess of the ligand. After incubation for 20 min at room temperature in the dark, the sample was centrifuged at 20 000 × g for 3 min and the supernatant was transferred to a 5 mm NMR tube. The AlbAS blank sample (Supplementary Figure 14) was measured in 100% buffer without addition of ligands and DMSO. Spectra were recorded on a Bruker Avance III 700 MHz NMR spectrometer (Bruker BioSpin, Rheinstetten, Germany) with a TXI probe head. Standard Bruker pulse sequences were used. 2D ^1H-^15N HSQC spectra were recorded at 298 K with acquisition times of 90 and 22 ms for the ^1H and ^15N dimension, respectively. The experiments were accumulated with ≥16 scans depending on protein sample concentration. 2D ^1H-^15N TROSY spectra were accumulated with 256 scans and acquisition times of 90 and 22 ms for the ^1H and ^15N dimension, respectively. Several AlbAS–albicidin samples were measured with the same result and a representative spectrum is given for the figures in the main manuscript and the SI. NMR experiments with AlbAS and albicidin analogs were conducted once with accumulation of ≥16 scans depending on protein concentration. For alignment of HSQC and TROSY spectra, the TROSY spectrum was corrected by 1/2 ^1JNH in both dimensions. […]

AlbAS [2] = target: T1, AlbAS; assay: Fluorescence quenching binding assay (tryptophan fluorescence) with AlbAS; settings: for Kd: AlbAS 20 nM, fluorescence quenching, pH 6.8
Method: Fluorescence quenching measurements were performed by monitoring tryptophan fluorescence of AlbAS (20 nM), AlbAL (20 nM), AlbASNTD, and AlbASCTD (100 nM) on a FluoroMax 2 spectrometer from Horiba (Potsdam, Germany). The excitation wavelength was set to λexc = 280 nm. Emission spectra were recorded from λem = 290–450 nm with a scanning speed of 1 nm s^−1 and an integration time of 1 s. The excitation and emission slit widths were set to 8 and 4 nm, respectively. Proteins were solved in 50 mM sodium phosphate buffer with 150 mM NaCl and 0.01% DMSO at pH 6.8. All measurements were performed twice and the standard deviation is given for the Kd and the Hill factor n. Data evaluation was performed by integration of the emission band (318–410 nm for AlbAS, 316–412 nm for AlbAL, and 319–390 nm for AlbASNTD and AlbASCTD) for every titration step. The area under the curve (AUC) of the buffer blank (buffer with 0.01% DMSO) was subtracted from the measured titration data. The quenching factor was determined by subtraction of AUCs for each titration step from the AUC of the protein in the absence of ligand. For determination of the AlbAS– and AlbAL–albicidin Kd values, the data were fitted to Eq. (2).2 Y=Bmax[L]^n/Kdn+[L]^n where [L], n, and Bmax denote the total ligand concentration, the Hill coefficient, and the maximum binding capacity of the protein, respectively.
For the determination of the Kd for AlbAS–compound 7 the data were fitted to Eq. (3).3 Y=Pt+L+Kd-Pt+L+Kd^2-4PtL/2 where Pt is the total protein concentration.

Row | SMILES | neutralization of antibacterial activity by AlbAS (E. coli DH5α) | antibacterial activity in agar diffusion assay (E. coli DH5α) | binding to AlbAS by HSQC signal pattern (in words) (AlbAS [1]) | effect on fluorescence emission of AlbAS (in words) (AlbAS [2]; AlbAS 20 nM titrated with compound) | Kd (AlbAS [2])
1 | COc1c(NC(=O)c2ccc(NC(=O)c3ccc(NC(=O)[C@H](CC#N)NC(=O)c4ccc(NC(=O)/C(C)=C/c5ccc(F)cc5)cc4)cc3)c(OC)c2O)ccc(C(=O)O)c1O [compound 1] | abolished the antibacterial activity |  |  |  | 
2 | COc1c(NC(=O)c2ccc(NC(=O)c3ccc(NC(=O)[C@@H](NC(=O)c4ccc(NC(=O)c5ccc(O)cc5)cc4)[C@@H](C)O)cc3)c(OC)c2O)ccc(C(=O)O)c1O [compound 2] | confirmed binding | strongly antibacterial | characteristic HSQC signal pattern as in the case of albicidin binding; also recorded: no significant effect on AlbAS binding |  | 
3 | COc1c(NC(=O)c2ccc(NC(=O)c3ccc(NC(=O)[C@@H](CC#N)NC(=O)c4ccc(NC(=O)/C(C)=C/c5ccc(O)cc5)cc4)cc3)c(OC)c2O)ccc(C(=O)O)c1O [compound 3] | prohibit its antibacterial effects; also recorded: neutralizing effect |  | still able to bind; also recorded: binding mode equivalent to that of albicidin |  | 
4 | C/C(=C\c1ccc(O)cc1)C(=O)Nc1ccc(C(=O)O)cc1 [compound 4] |  | did not display antibacterial activity | weak binding | did not lead to significant quenching; also recorded: no consistent effect on fluorescence emission spectra | 
5 | COc1c(NC(=O)c2ccc(NC(=O)c3ccc(N)cc3)c(OC)c2O)ccc(C(=O)O)c1O [compound 5] |  | did not display antibacterial activity | slow-exchange regime (strong binding) |  | ~55.5 nM and 55.5 nM
6 | COc1c(NC(=O)c2ccc(NC(=O)[C@H](CC#N)NC(=O)c3ccc(N)cc3)cc2)ccc(C(=O)O)c1O [compound 6] |  | did not display antibacterial activity | slow-exchange regime (strong binding) |  | 
7 | COC(C(N)=O)C(NC(=O)c1ccc(NC(=O)c2ccc([N+](=O)[O-])cc2)cc1)C(=O)Nc1ccc(C(=O)Nc2ccc(C(=O)Nc3ccc(C(=O)O)cc3OC(C)C)cc2OC(C)C)cc1 (centres unmarked) [compound 7] | able to neutralize the antibacterial effects of compound 7, albeit with decreased efficiency |  | strong binding of compound 7 in the nanomolar Kd range |  | 14 ± 2.9 nM
